Data on seven compounds can be found in patent publication US8748598B2, “Analogs of 3-O-acetyl-11-keto-beta-boswellic acid” (Laila Nutraceuticals, priority 2004, dated 2014).

In brackets after ≈: the same amount, converted by molar mass. Several values for one entry are separate records, joined by “and”; a condition that tells them apart may be missing. Equal entries are not always repeated. Where two headings read alike, the source gives them in different places.

The test system of data set [1] is MDA-MB-231. Briefly: MDA-MB-231 clone (colony) formation in vitro. Format: cell-based, human. The following applies: 25 μg/ml, 8 days. The method, then: Inhibitory efficacy in clone formation of LI-51255 was tested by following the procedure described earlier with some modifications (Wu et al. 2005). Briefly, MDA-MB-231 cells were harvested and seeded into 6-well plates (100 cells/ml). The cells were allowed to grow for 4 days and thereafter, the cells were incubated with DMEM containing either 0.5% DMSO or 25 μg/ml AKBA or different concentrations (1.0, 1.5, 2.0, 2.5 μg/ml) of LI-51255 for further 8 days. Fresh medium containing test agents was replaced at every 24 h. Finally, the wells were washed three times with PBS and fixed in methanol for 15 min. The cells were stained with Giemsa stain and observed under microscope. The image of the stained wells were captured digitally (Kodak Image Station 4000MM, Carestream Health Inc., New Haven, Conn.) and number of colonies were counted and analyzed by using NIH Image J software.

Another data set relates to Jurkat. Format: cell-based, human. More on the design: minimum inhibitory concentration (MIC) Jurkat: unit not given here. The conditions noted are these: MTT assay. As to the method: (§1) MTT [3-(4,5-dimethylthiazol-2-yl)-2,5-diphenyltetrazolium bromide] incorporation based cell proliferation assay was performed as described previously (Reference). The cytotoxic efficacy of some analogs was evaluated in different cell lines by MTT cell proliferation assay kit (Roche Applied Sciences, Germany). The assay was carried out according to the instruction provided by the vendor. Briefly, in brief, equal numbers of cells was plated in 96-well flat-bottomed plates in 100 μl of medium and were exposed to different analogs selected from 1 to 63 at various concentrations up to 10 μg/ml for a period of three days. Vehicle control culture wells received only a maximum of 0.5% DMSO. Thereafter, 0.5 mg/ml of MTT reagent was added to each well and the microplate was incubated further for 4 h at 37° C. in presence of 5% CO2. Finally, the cells were solubilized by adding solubilizing solution and allowed to incubate at 37° C. overnight. After complete solubilization of the formazan crystals the absorbance was read at 540 nm in a microplate reader (BioRad, USA). The results (mean OD±SD) obtained from quadruplicate wells were used in calculation to determine the inhibition of cell proliferation (50% of inhibitory concentration, IC50) of the test compounds.
(§2) The cytotoxic properties of some analogs were evaluated by MTT incorporation assay. The methodology of the assay procedure was the same as mentioned in example 41.

Data set [2] deals with MDA-MB-231. Briefly: MTT cell proliferation assay, MDA-MB-231. The following applies: for IC50: Homo sapiens, MDA-MB-231. Format: cell-based, human. The method, then: as §1, §2
A further data set has as its system MCF-7. Briefly: MTT cell proliferation assay, MCF-7. Type of data set: cell-based, human. The conditions noted are these: for IC50: Homo sapiens, MCF7. The method, then:
as §1, §2

Another data set concerns PC3M. Briefly: Cytotoxicity MTT assay, PC3M. Format: cell-based, human. More on the design: minimum inhibitory concentration (MIC) PC3M: unit not given here. The following applies: for minimum inhibitory concentration (MIC) PC3M: MTT assay.
The test system of data set [3] is Freund's Adjuvant-induced arthritis in Wistar Albino rats. Briefly: Freund's adjuvant-induced arthritis, paw edema. Type of data set: in vivo. The conditions noted are these: 10 mg/kg daily oral for 30 days; edema 13 days after Freund's Adjuvant. As to the method:
The Wistar Albino rats were divided into four groups with […] each group. The two treatment groups, each containing 6 animals, were orally supplemented with one of the two analogs namely glycinate of AKBA (10) or piperazine amide of AKBA (23) in 1% carbomethylcellulose (CMC) at a daily dose of 10 mg/kg for 30 days. The control group of animals received same volume of 1% CMC orally and a positive control group received 10 mg/kg daily dose of prednisolone for direct comparison. Following the 30 day treatment and one hour after the last dose all the animals were challenged with 0.1 mL of 1% solution of Freund's Adjuvant through a subcutaneous injection in the sub-plantar region of left hind paw. The paw volume was measured using a plethymograph. The difference between the paw volumes measured before and 13 days after the Freund's Adjuvant injection was taken as edema volume. The percentage inhibition was calculated by comparing the mean edema of the control group and treatment groups.

The next data set deals with HePG2. Briefly: Cytotoxicity MTT assay, HePG2. More on the design: unit not given here. Type of data set: cell-based, human. The method, then: as §1, §2
Another data set relates to Brine shrimp. Briefly: Brine shrimp lethality. Type of data set: in vivo. The conditions noted are these: for IC50: read-out: Brine shrimp lethality IC50. The method, then:
The Brine shrimp lethality was evaluated for the analogs 1 to 28 and compared the activities with those of AKBA and a standard compound podophyllotoxin. The data was summarized already disclosed in our earlier application Ser. No. 10/540,257 which is granted under U.S. Pat. No. 7,625,947 which is incorporated herein by reference. The magnitude of Brine shrimp lethality obtained for the analogs has significant correlation with 5-LOX inhibitory activity.

The subject of another data set is A549. Briefly: MTT cell proliferation assay, A549. The following applies: Table 2; three days. Format: cell-based, human. The method, then:
as §1

A further data set concerns B16. Briefly: MTT cell proliferation assay, B16. The following applies: Table 2; three days. Type of data set: cell-based, mouse. The method, then: as §1
In a further data set the test system is A375. Briefly: MTT cell proliferation assay, A375. The following applies: Table 2; three days. Type of data set: cell-based, human. The method, then: as §1
A further data set relates to potato 5-lipoxygenase. Briefly: 5-Lipoxygenase enzyme inhibitory activity. Format: biochemical. The method, then:
5-Lipoxygenase enzyme inhibitory activity was measured using the method of Schewe et al. (Adv Enzymol, Vol 58, 191-272, 1986), modified by Reddanna et. al., (Methods of Enzymology, Vol 187, 268-277, 1990). The assay mixture contained 80 μM linoleic acid and sufficient amount of potato 5-lipoxygenase in 50 mM phosphate buffer (pH 6.3). The reaction was initiated by the addition of enzyme buffer mix to linoleic acid and the enzyme activity was monitored as the increase in absorbance at 234 nm. The reaction was monitored for 120 sec and the inhibitory potential of the test substances (29, 31, 33, 34, 35, 36, 39, 40, 43, 44, 46, 47, 48, 49, 50, 54, 57, 59, 62 & 63) was measured by incubating various concentrations of test substances two minutes before the addition of linoleic acid. All assays were performed three times. Percentage inhibition was calculated by comparing the slope of the curve obtained for test substances with that of the control.

As to “3-O-acetyl-11-keto-β-boswellic acid [AKBA, reference compound]”, the MDA-MB-231 colony formation result with MDA-MB-231 [1] is “inhibition of MDA-MB-231 colony formation”.
On to `C[C@@H]1CC[C@]2(C)CC[C@]3(C)C(=CC(=O)C4[C@@]5(C)CC[C@@H](OC(=O)CN)[C@](C)(C(=O)O)C5CC[C@]43C)C2[C@H]1C` (some centres unmarked) [Analog 10], for which, in the data set on Jurkat, the “minimum inhibitory concentration (MIC) Jurkat” value was 50. Besides, the IC50 was 19.5 µg/mL (≈ 36.9 µM) in the data set with MDA-MB-231 [2] (Table 4) and 26.9 µg/mL (≈ 51 µM) in the data set with MCF-7 (Table 4). Also, in the data set on PC3M, the “minimum inhibitory concentration (MIC) PC3M” value is listed as 50. Also, the “inhibition of paw edema” value in [3] turned out to be 12%. For the same compound, in the data set on HePG2, the “minimum inhibitory concentration (MIC) HePG2” value is more than 150.
With `CC(=O)OC1CCC2(C)C(CCC3(C)C2C(=O)C=C2C4C(C)C(C)CCC4(C)CCC23C)C1(C)C(=O)N1CCNCC1` (centres unmarked) [Analog 23], the IC50 in the data set with Brine shrimp (in vivo) is 880 nM. The “minimum inhibitory concentration (MIC) Jurkat” value in the data set on Jurkat is given as 50. In addition, the “IC50 values MDA-MB-231” value with MDA-MB-231 [2] (Table 4) is “IC50 at 5.53 μg/ml”. In the data set with MCF-7 (Table 4), the “IC50 values MCF-7” value is recorded as “IC50 at 9.03 μg/ml”. For the same compound, in the data set with PC3M, the “cytotoxicity against PC3M” value was “significantly more potent” and the “minimum inhibitory concentration (MIC) PC3M” value is on record as 10. Besides, the “inhibition of paw edema” value in data set [3] was 16.4% and 16.3%. In addition, the “minimum inhibitory concentration (MIC) HePG2” value in the data set on HePG2 came out at 40.
`CC(=O)O[C@@H]1CC[C@@]2(C)C(CC[C@]3(C)C2C(=O)C=C2C4[C@@H](C)[C@H](C)CC[C@]4(C)CC[C@]23C)[C@@]1(C)N` (some centres unmarked) [Analog 25]: in the data set on Brine shrimp (in vivo), the “inhibitory capabilities against brine shrimp” value is “potent inhibitory capabilities”. The “minimum inhibitory concentration (MIC) Jurkat” value in the data set with Jurkat came out at 50. Besides, inhibition in the data set with MDA-MB-231 [2] (Table 4) was half-maximal at 13.2 µg/mL (≈ 27.3 µM) (IC50). Moreover, the IC50 with MCF-7 (Table 4) was determined as 14 µg/mL (≈ 28.9 µM). In the data set with PC3M, the “cytotoxicity against PC3M” value was “significantly more potent” and the “minimum inhibitory concentration (MIC) PC3M” value worked out at 30. Also, the “minimum inhibitory concentration (MIC) HePG2” value in the data set on HePG2 was found to be 50.
With `CC(=O)O[C@@H]1CC[C@@]2(C)C(CC[C@]3(C)C2C(=O)C=C2C4[C@@H](C)[C@H](C)CC[C@]4(C)CC[C@]23C)[C@@]1(C)C(=O)NCCNC=O` (some centres unmarked) [Analog 48], the “Inhibition of cell proliferation A549 (IC50)” value in the data set on A549 stood at 6.83 µg/mL. Moreover, the “Inhibition of cell proliferation B16 (IC50)” value in the data set on B16 stood at 4.35 µg/mL. Further, the “Inhibition of cell proliferation A375 (IC50)” value in the data set on A375 is 3.53 µg/mL. Further, the “Inhibition of cell proliferation MDA-MB-231 (IC50)” value with MDA-MB-231 [2] (Table 2, three days) came to 4.98 µg/mL. Moreover, the “Percentage Inhibition of cell proliferation MDA-MB-231” value with MDA-MB-231 [2] (Table 4, 10 μg/ml) is 8.8% at 10 μg/ml. In addition, the “Inhibition of cell proliferation MCF-7 (IC50)” value with MCF-7 (Table 2, three days) came to 12.5 µg/mL. Further, the “% inhibition at 10 μg/ml” value with potato 5-lipoxygenase (10 μg/ml) was found to be 22.78%. Besides, the “% inhibition at 25 μg/ml” value in the data set on potato 5-lipoxygenase (25 μg/ml) is on record as 54.18%.
Regarding `COc1cc([C@@H]2c3cc4c(cc3[C@H](O)[C@H]3COC(=O)[C@H]23)OCO4)cc(OC)c1OC` [podophyllotoxin, reference compound], in the data set on Brine shrimp, the IC50 was determined as 3000 nM.
For `C[C@]12C=CC(=O)C=C1CC[C@@H]1[C@@H]2[C@@H](O)C[C@@]2(C)[C@H]1CC[C@]2(O)C(=O)CO` [prednisolone, reference compound], the “inhibition of paw edema” value in data set [3] turned out to be 16.8%.
